Reference: patent US20220330549A1, “USE OF N-BENZYLBENZAMIDE-BASED COMPOUND AS HERBICIDE” (Northwest A&F University, priority 2020, published 2022)

Columns and labels:
Format in all cases: in vivo
Barnyard grass [1] = test: Herbicidal activity test for indoor pre-emergence soil treatment; set-up: key: level 1-9; higher = more weed remaining vs blank control; details: 150 g a.i./ha, visual inspection 21 days after treatment
Procedure, shortened: (§1)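 Pre-emergence soil spray per NY/T 1155.3-2006: weed seeds sown in moistened neutral sandy loam (organic content ≤2%), covered with 0.5–2.0 cm soil, then sprayed 24 h later with a water-diluted 10% emulsifiable concentrate at 150 g(a.i.)/ha. Visual rating after 21 days on a 1–9 scale.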

Piemarker [2] = test: as above; set-up: key: level 1-9; higher = more weed remaining vs blank control; details: 150 g a.i./ha, visual inspection 21 days after treatment
Procedure, shortened: as §1

green bristlegrass [3] = test: as above; set-up: key: level 1-9; higher = more weed remaining vs blank control; details: 150 g a.i./ha, visual inspection 21 days after treatment
Procedure, shortened: as §1

Amaranthus retroflexus [4] = test: as above; set-up: key: 1-9 levels; higher = more weed remaining vs blank control; details: 150 g a.i./ha, visual inspection 21 days after treatment
Procedure, shortened: as §1

Digitaria sanguinalis [5] = test: as above; set-up: key: 1-9 levels; higher = more weed remaining vs blank control; details: 150 g a.i./ha, visual inspection 21 days after treatment
Procedure, shortened: as §1

Humulus scandens [6] = test: as above; details: 150 g a.i./ha, visual inspection 21 days after treatment
Procedure, shortened: as §1

Amaranthus retroflexus [7] = test: Herbicidal activity test for indoor post-emergence spraying on stems and leaves; set-up: key: grade level by weed remaining vs blank control, e.g. 5 = 10.1-15%; details: 150 g a.i./ha, visual inspection 21 days after treatment
Procedure, shortened: (§2)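 Run per NY/T 1155.4-2006: weeds sown, grown in greenhouse, then sprayed post-emergence on stems and leaves. Effect scored visually 21 days after treatment on a graded level scale relative to weed in the blank control area.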

Barnyard grass [8] = test: as above; set-up: key: grade level by weed remaining vs blank control, e.g. 5 = 10.1-15%; details: 150 g a.i./ha, visual inspection 21 days after treatment
Procedure, shortened: as §2

Digitaria sanguinalis [9] = test: as above; set-up: key: grade level by weed remaining vs blank control, e.g. 5 = 10.1-15%; details: 150 g a.i./ha, visual inspection 21 days after treatment
Procedure, shortened: as §2

Humulus scandens [10] = test: as above; set-up: key: grade level by weed remaining vs blank control, e.g. 5 = 10.1-15%; details: 150 g a.i./ha, visual inspection 21 days after treatment
Procedure, shortened: as §2

Piemarker [11] = test: as above; set-up: key: grade level by weed remaining vs blank control, e.g. 5 = 10.1-15%; details: 150 g a.i./ha, visual inspection 21 days after treatment
Procedure, shortened: as §2

green bristlegrass [12] = test: as above; set-up: key: grade level by weed remaining vs blank control, e.g. 5 = 10.1-15%; details: 150 g a.i./ha, visual inspection 21 days after treatment
Procedure, shortened: as §2

Broadleaf weed = test: Post-emergence herbicidal activity test in a paddy field; set-up: key: level scale; higher level = more weed left vs blank control; details: 150 g a.i./ha (penoxsulam control 250 g(a.i.)/h)
Procedure, shortened: (§3)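 Efficacy was visually estimated 15 and 30 days after spraying, grading weed coverage relative to an untreated neighbouring plot (level 2 = 0 to 2.5%, level 9 = 67.6 to 100%). Treatments were 150 g(a.i.)/ha from 10% emulsifiable concentrates applied at the 4-5 leaf rice stage, four repeats of 50 m^2 each.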

Cyperaceae = test: as above; set-up: key: level scale; higher level = more weed left vs blank control; details: 150 g a.i./ha (penoxsulam control 250 g(a.i.)/h)
Procedure, shortened: as §3

Gramineae = test: as above; set-up: key: level scale; higher level = more weed left vs blank control; details: 150 g a.i./ha (penoxsulam control 250 g(a.i.)/h)
Procedure, shortened: as §3

Acalypha australis = test: Field test for weed control in a corn field; details: 150 g a.i./ha, after treatment
Procedure, shortened: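 Post-emergence field trial in a corn field following GB/T 17980.42-2000. Test compounds were formulated as 10% emulsifiable concentrates, diluted in water, and sprayed at 150 g(a.i.)/ha when corn had 2 to 5 leaves, with 4 replicates on 20 m^2 plots. Mesotrione 25% oil dispersion served as the control agent. Weed control was scored on a 1-9 scale.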

Amaranthus retroflexus [13] = test: Field test for weed control in a corn field; details: 150 g a.i./ha, 30 days after treatment
Procedure, shortened: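 Field efficacy trial in a corn field following GB/T 17980.42-2000. Test compounds were formulated as 10% emulsifiable concentrates, diluted in water and sprayed post-emergence when corn had 2 to 5 leaves. Each treatment covered 20 m^2 with 4 replicates. A 25% mesotrione oil dispersion served as control. Damage to Amaranthus retroflexus was rated on a 1-9 scale against untreated blank plots.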

Barnyard grass [14] = test: Field test for weed control in a corn field; details: 150 g a.i./ha, 30 days after treatment
Procedure, shortened: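 Corn-field efficacy trial following GB/T 17980.42-2000. Test compounds were formulated as 10% emulsifiable concentrates, diluted in water and sprayed post-emergence at 150 g(a.i.)/ha when corn had 2 to 5 leaves. Each treatment was replicated 4 times on 20 m^2 plots. Barnyard grass control was rated on a 1-9 damage scale.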

Chenopodium album = test: Field test for weed control in a corn field; details: 150 g a.i./ha, after treatment
Procedure, shortened: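 A corn-field efficacy trial following GB/T 17980.42-2000 tested post-emergence control of Chenopodium album. Test compounds formulated as 10% emulsifiable concentrates were diluted in water and sprayed at 150 g(a.i.)/ha when the corn had 2 leaves to 5 leaves, on 20 m^2 plots with 4 replicates. Herbicidal activity was rated on a 1-9 scale by damage symptoms and severity.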

Convolvulus arvensis = test: Field test for weed control in a corn field; details: 150 g a.i./ha, after treatment
Procedure, shortened: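 Field trial of weed control against Convolvulus arvensis in corn, run following GB/T 17980.42-2000. Test agents were formulated as 10% emulsifiable concentrates and sprayed in water at 150 g(a.i.)/ha when corn plants had 2 to 5 leaves. Each treatment was replicated 4 times on 20 m^2 plots, and 25% mesotrione oil dispersion served as the control agent.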

Digitaria sanguinalis [15] = test: Field test for weed control in a corn field; details: 150 g a.i./ha, after treatment
Procedure, shortened: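 Field trial in a corn field following GB/T 17980.42-2000. Test compounds were formulated as 10% emulsifiable concentrates, diluted in water and sprayed post-emergence at 150 g(a.i.)/ha when corn had 2 to 5 leaves, with 4 replicates on 20 m^2 plots. Control of Digitaria sanguinalis was scored on a 1-9 scale based on weed damage relative to the untreated blank area.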

Portulaca oleracea = test: Field test for weed control in a corn field; details: 150 g a.i./ha, after treatment
Procedure, shortened: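 Field efficacy trial in corn following GB/T 17980.42-2000. Test compounds were prepared as 10% emulsifiable concentrates, diluted in water, and sprayed at 150 g(a.i.)/ha when corn had 2 to 5 leaves after sowing. Plots were 20 m^2 with 4 replicates per treatment. Herbicidal activity was scored on a 1-9 scale from weed damage symptoms and severity.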

Solanum nigrum = test: Field test for weed control in a corn field; details: 150 g a.i./ha, 30 days after treatment
Procedure, shortened: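 Post-emergence weed control was tested in a corn field following GB/T 17980.42-2000. Compounds were made into 10% emulsifiable concentrates, diluted in water and sprayed at 150 g(a.i.)/ha when corn had 2 to 5 leaves after sowing, in 20 m^2 plots with 4 replicates. Effects on Solanum nigrum were graded on a 1-9 scale relative to the blank control area.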

goosegrass = test: Field test for weed control in a corn field; details: 150 g a.i./ha, after treatment
Procedure, shortened: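 Weed control efficacy against goosegrass was tested in a corn field following GB/T 17980.42-2000. Compounds formulated as 10% emulsifiable concentrates were diluted in water and sprayed post-emergence at 150 g(a.i.)/ha when corn had 2 to 5 leaves, with 4 replicates of 20 m^2 plots. Herbicidal activity was rated on a 1-9 scale by damage symptoms and severity.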

green bristlegrass [16] = test: Field test for weed control in a corn field; details: 150 g a.i./ha, after treatment
Procedure, shortened: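 Post-emergence weed control was tested in a corn field following GB/T 17980.42-2000. When the corn had 2 leaves to 5 leaves after sowing, 10% emulsifiable concentrates diluted in water were sprayed at 150 g(a.i.)/ha on 20 m^2 plots, four replicates per treatment. Effects on green bristlegrass were scored on a 1-9 damage scale relative to the blank control area.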

nutgrass flatsedge = test: Field test for weed control in a corn field; details: 150 g a.i./ha, after treatment
Procedure, shortened: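 A corn field efficacy trial following GB/T 17980.42-2000 assessed post-emergence control of nutgrass flatsedge. Test compounds were formulated as 10% emulsifiable concentrates, diluted in water, and sprayed at 150 g(a.i.)/ha when the corn had 2 to 5 leaves. Each treatment had 4 replicates on 20 m^2 plots. Herbicidal activity was graded on a 1-9 scale by damage symptoms and severity.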

SMILES: Cc1ccc(CNC(=O)c2cccc(C)c2)cc1 [Compound B15]
- Herbicidal Activity Barnyard grass (Barnyard grass [1]): 1
- Herbicidal Activity Piemarker (Piemarker [2]): 1
- Herbicidal Activity Green bristlegrass (green bristlegrass [3]): 2 (equivalent to 0 to 2.5% of the weed in the blank control area)
- Herbicidal Activity Amaranthus retroflexus (Amaranthus retroflexus [4]): 2 (equivalent to 0 to 2.5% of the weed in the blank control area)
- Herbicidal Activity Digitaria sanguinalis (Digitaria sanguinalis [5]): 1
- Herbicidal Activity Humulus scandens (Humulus scandens [6]): 3 (equivalent to 2.6 to 5% of the weed in the blank control area)
- Herbicidal Activity Amaranthus retroflexus (Amaranthus retroflexus [7]): 1
- Herbicidal Activity Barnyard grass (Barnyard grass [8]): 1
- Herbicidal Activity Digitaria sanguinalis (Digitaria sanguinalis [9]): 1
- Herbicidal Activity Humulus scandens (Humulus scandens [10]): 1
- Herbicidal Activity Piemarker (Piemarker [11]): 1
- Herbicidal Activity Green bristlegrass (green bristlegrass [12]): 1
- Herbicidal activity 15 days after treatment Broadleaf weed (Broadleaf weed; 15 days after treatment): 1
- Herbicidal activity 30 days after treatment Broadleaf weed (Broadleaf weed; 30 days after treatment): 1
- Herbicidal activity 15 days after treatment Cyperaceae (Cyperaceae; 15 days after treatment): 1
- Herbicidal activity 30 days after treatment Cyperaceae (Cyperaceae; 30 days after treatment): 2 (equivalent to 0 to 2.5% of the weed in the blank control area)
- Herbicidal activity 15 days after treatment Gramineae (Gramineae; 15 days after treatment): 2 (equivalent to 0 to 2.5% of the weed in the blank control area)
- Herbicidal activity 30 days after treatment Gramineae (Gramineae; 30 days after treatment): 1
- Post-emergence weed control effect, Acalypha australis (Acalypha australis): 1
- Post-emergence weed control effect, Amaranthus retroflexus (Amaranthus retroflexus [13]): 1
- Post-emergence weed control effect, Barnyard grass (Barnyard grass [14]): 1
- Post-emergence weed control effect, Chenopodium album (Chenopodium album): 1
- Post-emergence weed control effect, Convolvulus arvensis (Convolvulus arvensis): 2 (equivalent to 0 to 2.5% of the weed in the blank control area)
- Post-emergence weed control effect, Digitaria sanguinalis (Digitaria sanguinalis [15]): 2 (equivalent to 0 to 2.5% of the weed in the blank control area)
- Post-emergence weed control effect, Portulaca oleracea (Portulaca oleracea): 1
- Post-emergence weed control effect, Solanum nigrum (Solanum nigrum): 1
- Post-emergence weed control effect, Goose grass (goosegrass): 2 (equivalent to 0 to 2.5% of the weed in the blank control area)
- Post-emergence weed control effect, Green bristlegrass (green bristlegrass [16]): 2 (equivalent to 0 to 2.5% of the weed in the blank control area)
- Post-emergence weed control effect, Nutgrass flatsedge (nutgrass flatsedge): 2 (equivalent to 0 to 2.5% of the weed in the blank control area)
